Experimental data reported in patent US20250250251A1, “PIPERIDINYLPYRIDINYLCARBONITRILE DERIVATIVES AS INHIBITORS OF GLUTAMINYL-PEPTIDE CYCLOTRANSFERASE AND GLUTAMINYL-PEPTIDE CYCLOTRANSFERASE LIKE PROTEIN” (Boehringer Ingelheim International GmbH, priority 2024, published 2025).
Read-outs that look alike come from different tables or passages of the source.

Key:
CACO-2 cells = experiment: Assay C: permeability in CACO-2 cells; type: in vitro ADME; details: pairs with and without 4-fluoropiperidyl, CACO2 cells
Procedure, shortened: (§1)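 Caco-2 monolayers were grown 10–25 days on porous filter inserts. Compound was applied to the apical or basolateral donor side for A-B or B-A transport (3 filters), and the receiver was sampled for up to 2 h. Quantitation was by HPLC-MS/MS or scintillation; efflux ratio = B-A/A-B permeability.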

[1] = Assay C: permeability in CACO-2 cells; type: in vitro ADME; details: human, Caco-2, pH 7.2
Procedure, shortened: as §1

murine hepatocytes = experiment: Assay E: stability in murine hepatocytes; type: in vitro ADME, mouse; details: Table 13, prior art compounds, 1 μM, 5% species serum
Procedure, shortened: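 Cryopreserved mouse hepatocytes, typically 1 Mio cells/mL in medium with 5% species serum, were dosed at 1 μM compound (0.05% DMSO) at 37 °C and sampled over 0–6 h. Parent decline was measured by HPLC-MS/MS and CLint calculated from dose/AUC, then scaled by well-stirred liver model.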

[2] = test system: SIRPα signalling induced by A549 cells; experiment: Assay B: SIRPα signalling assay using A549 cells; type: cell-based; details: Homo sapiens, Table 5, prior art compounds, read-out: Inhibition of SIRPα signalling induced by A549 cells: IC50
Procedure, shortened: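 Raji or A549 cells (5000/well) were each incubated with serially diluted compound for 48 h at 37 °C. Jurkat PathHunter SIRPαV1 reporter cells (15000/well) were then added for 5 h. Beta-galactosidase luminescence gave IC50 via a 4-parameter sigmoidal fit.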

isolated QPCTL [3] = target: T1, isolated QPCTL (Homo sapiens, UniProt Q9NXS2); details: as disclosed in WO 2024/020517; read-out: Inhibitory activity on isolated QPCTL, IC50; cited from earlier work
isolated QPCTL [4] = target: T1, isolated QPCTL; details: as disclosed in WO 2023/205173; read-out: inhibitory activity on isolated QPCTL, IC50; cited from earlier work
[5] = test system: SIRPα signalling induced by Raji cells; experiment: Assay B: SIRPα signalling assay using Raji cells; type: cell-based; details: Homo sapiens, Table 5, prior art compounds, read-out: Inhibition of SIRPα signalling induced by Raji cells: IC50
Procedure, shortened: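 SIRPα signalling induced by Raji cells in a PathHunter reporter line, read as β-galactosidase complementation luminescence. Detection reagent 1 added for 15 min, then reagent 2 for 60 min in the dark, both at room temperature.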

CYP3A4 mRNA = experiment: Assay D: CYP induction screening assay in primary human hepatocytes; type: in vitro ADME; details: Table 10, prior art compounds, 48 h
Procedure, shortened: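 Single-donor cryopreserved human hepatocytes on collagen with Matrigel overlay were exposed to test compound at […] (0.1% DMSO) for 48 h, medium renewed at 24 h. CYP3A4 mRNA quantified by QuantiGene Plex/Luminex, normalised to geometric mean of RPL32, EIF4E2, GUSB and expressed relative to solvent control.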

QPCTL = target: T2, QPCTL (Homo sapiens, UniProt Q9NXS2); experiment: Assay A: biochemical QPCTL activity assay (MALDI-TOF MS, CD47 peptide substrate); details: Table 3, prior art compounds, read-out: Inhibition of QPCTL: IC50
T2 construct: made in house
Procedure, shortened: (§2)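 Enzyme and compound pre-incubated 10 min at 24° C in 20 mM Tris pH 7.5 with TCEP, BSA, Tween20, then 40 min with CD47 peptide (10 μM for QPCTL, 20 μM for QPCT). Pyroglutamate product/internal standard ratio by MALDI-TOF MS, normalized to controls; four-parameter logistic fit.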

QPCT = target: T3, QPCT (Homo sapiens, UniProt Q16769); experiment: Assay A: biochemical QPCT activity assay (MALDI-TOF MS, CD47 peptide substrate); details: Table 3, prior art compounds, read-out: Inhibition of QPCT: IC50
T3 construct: purchased Origine (OriGene) TP700028
Procedure, shortened: as §2

[6] = pairs with and without 4-fluoropiperidyl, CACO2 cells, read-out: Efflux ratio (BA/AB)

T3 sequence (Q16769 29-361): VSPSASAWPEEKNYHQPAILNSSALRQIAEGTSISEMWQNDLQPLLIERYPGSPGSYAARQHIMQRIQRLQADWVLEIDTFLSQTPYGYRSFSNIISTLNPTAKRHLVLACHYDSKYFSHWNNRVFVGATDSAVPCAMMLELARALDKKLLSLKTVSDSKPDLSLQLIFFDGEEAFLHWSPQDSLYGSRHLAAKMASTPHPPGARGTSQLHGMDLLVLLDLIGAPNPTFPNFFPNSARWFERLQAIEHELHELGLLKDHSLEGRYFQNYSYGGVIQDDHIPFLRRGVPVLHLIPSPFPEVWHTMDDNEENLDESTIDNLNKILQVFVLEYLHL
T2 sequence (Q9NXS2 whole entry, species assumed): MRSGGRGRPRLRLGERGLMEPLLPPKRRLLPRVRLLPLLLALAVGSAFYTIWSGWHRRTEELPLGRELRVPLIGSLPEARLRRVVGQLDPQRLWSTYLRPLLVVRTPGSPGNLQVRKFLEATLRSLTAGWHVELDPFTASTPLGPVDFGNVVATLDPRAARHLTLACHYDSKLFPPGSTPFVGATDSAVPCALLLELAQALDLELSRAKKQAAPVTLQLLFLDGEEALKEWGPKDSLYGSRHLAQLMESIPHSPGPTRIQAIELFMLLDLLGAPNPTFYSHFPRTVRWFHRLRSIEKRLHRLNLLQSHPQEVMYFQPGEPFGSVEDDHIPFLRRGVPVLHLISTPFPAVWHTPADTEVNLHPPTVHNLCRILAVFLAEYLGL
T1 sequence (Q9NXS2 whole entry): as the sequence (Q9NXS2 whole entry, species assumed) above

## Cn1cnnc1C1CCN(c2c(C#N)cc(F)cc2-c2cnc3nn(C(C)(C)C)c(C(F)(F)F)c3c2)CC1
CACO-2 cells
  CACO2 Perm.: 17.0 10^−6 cm/sec
[1]; [6]
  efflux ratio: 5.7

## Cn1cnnc1C1(F)CCN(c2c(C#N)cc(F)cc2-c2cnc3nn(C(C)(C)C)c(C(F)(F)F)c3c2)CC1
CACO-2 cells
  CACO2 Perm.: 51.0 10^−6 cm/sec
[1]; [6]
  efflux ratio: 0.8

## Cn1cnnc1C1CCN(c2c(C#N)cccc2-c2ccc(F)nc2)CC1 [(1)/QP5020, reference compound]
CACO-2 cells
  CACO2 Perm.: 28.0 10^−6 cm/sec
Murine hepatocytes
  Mouse Hepatocyte Stability QH: 83%
[2]
  IC50: 8 nM

## Cn1cnnc1C1CCN(c2c(C#N)cccc2-c2ccnnc2)CC1 [Compound 11]
CACO-2 cells
  CACO2 Perm.: 0.3 10^−6 cm/sec
[2]
  IC50: 70 nM
Isolated QPCTL [3]
  IC50: < 100 nM

## Cn1c(N)nnc1C1CCN(c2c(C#N)cccc2-c2ccc(F)nc2)CC1 [Compound 14, reference compound]
Murine hepatocytes
  Mouse Hepatocyte Stability QH: 33%
Isolated QPCTL [4]
  IC50: < 1000 nM
[5]
  IC50: 4 nM
[2]
  IC50: 4 nM
CYP3A4 mRNA
  n-fold induction of CYP3A4 at 10 μM: 1.9 n-fold

## Cn1cc2c(-c3cccc(C#N)c3N3CCC(c4nncn4C)CC3)cncc2n1 [Compound 16, reference compound]
[1]
  Papp A→B: < 0.6 ×10⁻⁶ cm/s
[1]; read-out: Efflux Ratio
  efflux ratio: > 21.7
Murine hepatocytes
  Mouse Hepatocyte Stability QH: 61%
QPCTL
  IC50: 10 nM
QPCT
  IC50: 24 nM
[5]
  IC50: 778 nM
[2]
  IC50: 396 nM
CYP3A4 mRNA
  n-fold induction of CYP3A4 at 10 μM: 1.5 n-fold
Isolated QPCTL [3]
  IC50: < 100 nM

## Cn1cnnc1C1CCN(c2c(C#N)cc(Cl)cc2-c2ccc(F)nc2)CC1 [Compound 18 in WO 2024/020517]
CACO-2 cells
  CACO2 Perm.: 23.0 10^−6 cm/sec

## COc1ccc(-c2ccnnc2)c(N2CCC(c3nncn3C)CC2)c1C#N [Compound 26, reference compound]
[1]
  Papp A→B: < 0.02 ×10⁻⁶ cm/s
[1]; read-out: Efflux Ratio
  efflux ratio: > 135
Murine hepatocytes
  Mouse Hepatocyte Stability QH: 19%
QPCTL
  IC50: 1 nM
QPCT
  IC50: 2 nM
[5]
  IC50: 452 nM
[2]
  IC50: 208 nM
CYP3A4 mRNA
  n-fold induction of CYP3A4 at 10 μM: 1.1 n-fold
Isolated QPCTL [3]
  IC50: < 100 nM

## Cn1cnnc1C1CCN(c2c(C#N)cc(C(F)(F)F)cc2-c2ccc(F)nc2)CC1 [Compound 70 in WO 2024/020517]
CACO-2 cells
  CACO2 Perm.: 9.0 10^−6 cm/sec

## Cn1cnnc1C1CCN(c2c(C#N)cccc2-c2cnc3nccn3c2)CC1 [Compound 93, reference compound]
[1]
  Papp A→B: < 0.04 ×10⁻⁶ cm/s
[1]; read-out: Efflux Ratio
  efflux ratio: > 40
Murine hepatocytes
  Mouse Hepatocyte Stability QH: 26%
QPCTL
  IC50: 1 nM
QPCT
  IC50: 5 nM
[5]
  IC50: 1380 nM
[2]
  IC50: 356 nM
CYP3A4 mRNA
  n-fold induction of CYP3A4 at 10 μM: 0.8 n-fold
Isolated QPCTL [3]
  IC50: < 100 nM

## COc1ccc(-c2cnc3nccn3c2)c(N2CCC(c3nncn3C)CC2)c1C#N [Compound 94, reference compound]
[1]
  Papp A→B: < 1.4 ×10⁻⁶ cm/s
[1]; read-out: Efflux Ratio
  efflux ratio: > 0.8
Murine hepatocytes
  Mouse Hepatocyte Stability QH: 30%
QPCTL
  IC50: 1 nM
QPCT
  IC50: 3 nM
[5]
  IC50: 2040 nM
[2]
  IC50: 1300 nM
CYP3A4 mRNA
  n-fold induction of CYP3A4 at 10 μM: <1 n-fold
Isolated QPCTL [3]
  IC50: < 100 nM

## Cn1cnnc1C1CCN(c2c(C#N)cccc2-c2cnc3[nH]nc(O)c3c2)CC1 [Compound 113, reference compound]
[1]
  Papp A→B: < 0.78 ×10⁻⁶ cm/s
[1]; read-out: Efflux Ratio
  efflux ratio: > 5
Murine hepatocytes
  Mouse Hepatocyte Stability QH: <12%
QPCTL
  IC50: 149 nM
QPCT
  IC50: 164 nM
[5]
  IC50: > 10000 nM
[2]
  IC50: 4240 nM
CYP3A4 mRNA
  n-fold induction of CYP3A4 at 10 μM: <1 n-fold
Isolated QPCTL [3]
  IC50: < 100 nM

## Cn1cnnc1C1CCN(c2c(C#N)cc(F)cc2-c2ccc(F)nc2)CC1 [Compound 130 in WO 2024/020517]
CACO-2 cells
  CACO2 Perm.: 24.0 10^−6 cm/sec

## Cn1cnnc1C1CCN(c2c(-c3ccc(F)nc3)ccnc2C#N)CC1 [Compound 132 in WO 2024/020517]
CACO-2 cells
  CACO2 Perm.: 1.8 10^−6 cm/sec

## Cn1cnnc1C1CCN(c2c(C#N)ccnc2-c2ccc(F)nc2)CC1 [Compound 133 in WO 2024/020517]
CACO-2 cells
  CACO2 Perm.: 4.8 10^−6 cm/sec

## Cn1cnnc1C1(F)CCN(c2c(C#N)ccnc2-c2ccc(F)nc2)CC1 [Example 1 in EP 22188580.9]
CACO-2 cells
  CACO2 Perm.: 28.0 10^−6 cm/sec

## Cn1cnnc1C1(F)CCN(c2c(C#N)cc(C(F)(F)F)nc2-c2cnc3nn(C(C)(C)C)c(Cl)c3c2)CC1 [Example 3 in EP 23189886.7]
CACO-2 cells
  CACO2 Perm.: 47.0 10^−6 cm/sec

## Cn1cnnc1C1(F)CCN(c2c(C#N)cc(C(F)(F)F)cc2-c2ccc(F)nc2)CC1 [Example 4 in EP 23161417.3]
CACO-2 cells
  CACO2 Perm.: 40.5 10^−6 cm/sec

## Cn1cnnc1C1(F)CCN(c2c(C#N)cc(C(F)(F)F)nc2-c2cnc3nn(C(C)(C)C)c(C(F)(F)F)c3c2)CC1 [Example 4 in EP 23189886.7]
CACO-2 cells
  CACO2 Perm.: 99.5 10^−6 cm/sec

## Cn1cnnc1C1(F)CCN(c2c(C#N)cc(F)cc2-c2ccc(F)nc2)CC1 [Example 6 in EP 23161417.3]
CACO-2 cells
  CACO2 Perm.: 44.0 10^−6 cm/sec

## Cn1cnnc1C1(F)CCN(c2c(-c3ccc(F)nc3)ccnc2C#N)CC1 [Example 10 in EP 22188580.9]
CACO-2 cells
  CACO2 Perm.: 11.0 10^−6 cm/sec

## Cn1cnnc1C1CCN(c2c(C#N)cc(C(F)(F)F)nc2-c2cnc3nn(C(C)(C)C)c(C(F)(F)F)c3c2)CC1 [Example 13 in EP 23189886.7]
CACO-2 cells
  CACO2 Perm.: 3.7 10^−6 cm/sec

## Cn1cnnc1C1CCN(c2c(C#N)cc(Cl)cc2-c2cnc3nn(C(C)(C)C)cc3c2)CC1 [Example 17 in EP 23161417.3]
CACO-2 cells
  CACO2 Perm.: 2.5 10^−6 cm/sec

## Cn1cnnc1C1(F)CCN(c2c(C#N)cc(Cl)cc2-c2ccc(F)nc2)CC1 [Example 18 in EP 23161417.3]
CACO-2 cells
  CACO2 Perm.: 66.0 10^−6 cm/sec

## Cn1cnnc1C1(F)CCN(c2c(C#N)cc(Cl)cc2-c2cnc3nn(C(C)(C)C)cc3c2)CC1 [Example 19 in EP 23161417.3]
CACO-2 cells
  CACO2 Perm.: 18.0 10^−6 cm/sec

## Cn1cnnc1C1(F)CCN(c2c(-c3cnc4nn(C(C)(C)C)cc4c3)ccc(C(F)(F)F)c2C#N)CC1 [Example 30 in EP 23161417.3]
CACO-2 cells
  CACO2 Perm.: 1.7 10^−6 cm/sec

## Cn1cnnc1C1CCN(c2c(-c3cnc4nn(C(C)(C)C)cc4c3)ccc(C(F)(F)F)c2C#N)CC1 [Example 32 in EP 23161417.3]
CACO-2 cells
  CACO2 Perm.: 0.2 10^−6 cm/sec

## Cn1cnnc1C1CCN(c2c(C#N)cccc2-c2cnc3nn(C(C)(C)C)cc3c2)CC1 [Example 50 in EP 22216126.7]
CACO-2 cells
  CACO2 Perm.: 0.5 10^−6 cm/sec

## Cn1cnnc1C1(F)CCN(c2c(C#N)cccc2-c2ccnnc2)CC1 [Example 52 in EP 22216126.7]
CACO-2 cells
  CACO2 Perm.: 15.0 10^−6 cm/sec

## Cn1cnnc1C1(F)CCN(c2c(C#N)cccc2-c2ccc(F)nc2)CC1 [Example 56 in EP 23161417.3]
CACO-2 cells
  CACO2 Perm.: 50.0 10^−6 cm/sec

## Cn1cnnc1C1(F)CCN(c2c(C#N)cccc2-c2cnc3nn(C(C)(C)C)cc3c2)CC1 [Example 62 in EP 22216126.7]
CACO-2 cells
  CACO2 Perm.: 4.9 10^−6 cm/sec
